Data set [1] is described as follows: Aqueous solubility of the compound in PBS buffer at pH 7.4 incubated for 6 hrs by HPLC analysis. It is filed as physicochemical. The following applies: pH 7.4, 6 h.
Data set [2] has as its system K562. The data set can be described thus: Downregulation of beta-catenin levels in human K562 cells by Western blot analysis. It is filed as functional, cell-based. The following applies: dose 0.1-10 µM, DDE = dose-dependent effect. (A western blot detects proteins with antibodies after separation by electrophoresis.)
The test system of data set [3] is K562. As to the kind of experiment: Upregulation of axin-1 levels in human K562 cells by Western blot analysis. The following applies: dose 0.1-10 µM, DDE = dose-dependent effect. It is filed as functional, cell-based.
For data set [4], the system named is K562. The data set can be described thus: cells. The conditions noted are these: Homo sapiens, K562, 48 h.

Converted amounts (≈) assume the structure as drawn.

One may read the solubility as how much of the substance goes into solution per volume. Read a low solubility as a poorly soluble substance. The molecule `Cc1nn(-c2ccccc2Br)c(C)c1C(=O)Nc1ccc2ccccc2n1` returned a solubility in data set [1] of 5.9 µg/mL (≈ 14 µM).

In turn, `Cc1c(C(=O)Nc2ccc3ccccc3n2)cnn1-c1ccccc1Br` yielded a solubility in data set [1] of 0.05 µg/mL (≈ 0.123 µM).

The molecule `CCc1ccccc1-n1nc(C)c(C(=O)Nc2ccc3ccccc3n2)c1C` had a solubility in data set [1] of 5.2 µg/mL (≈ 14 µM). Further, the Activity entry with K562 [2] and with K562 [3] was “Dde” in each case.

For `Cc1ccccc1-n1nc(C)c(C(=O)Nc2ccc3ccccc3n2)c1C`, in data set [1], the solubility stood at 6.7 µg/mL (≈ 18.8 µM).

In general, IC50 refers to the point on the concentration scale where inhibition reaches its midpoint. With `Cc1ccccc1-n1nnc(C(=O)Nc2ccc3ccccc3n2)c1C`, in data set [1], the solubility amounted to 0.11 µg/mL (≈ 0.32 µM). In the data set on K562 [4], this molecule gave an IC50 of more than 50 µM.

Source of the values: ChEMBL document CHEMBL5113461, “Improving the solubility and antileukemia activity of Wnt/β-catenin signaling inhibitors by disrupting molecular planarity” (Bioorg Med Chem, 2022).
